From patent US12281114B2, “NK3 modulators and uses thereof” (Kallyope, Inc., priority 2023, dated 2025)

Molecular target: T1, human NK3 (Homo sapiens, UniProt P29371)
T1 sequence (P29371 1-465): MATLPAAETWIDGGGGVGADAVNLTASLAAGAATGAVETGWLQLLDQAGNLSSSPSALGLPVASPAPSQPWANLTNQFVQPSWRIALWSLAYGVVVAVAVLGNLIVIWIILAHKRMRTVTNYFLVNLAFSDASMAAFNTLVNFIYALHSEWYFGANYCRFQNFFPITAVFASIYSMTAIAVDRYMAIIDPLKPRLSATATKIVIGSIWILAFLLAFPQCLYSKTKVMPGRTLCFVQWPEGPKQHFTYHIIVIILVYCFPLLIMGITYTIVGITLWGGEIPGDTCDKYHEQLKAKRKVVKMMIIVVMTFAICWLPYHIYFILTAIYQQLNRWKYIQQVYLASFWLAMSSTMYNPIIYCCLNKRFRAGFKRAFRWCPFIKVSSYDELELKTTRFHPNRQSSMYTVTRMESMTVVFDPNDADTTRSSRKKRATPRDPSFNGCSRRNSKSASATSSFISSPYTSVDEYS
Assay: FLIPR calcium assay in antagonist mode (NKB EC70 challenge)
Assay type: cell-based
Conditions: stable cell line expressing human recombinant NK3; antagonist mode vs EC70 of NKB agonist
Description: Stable Cell Lines: A human recombinant NK3 Tachykinin Receptor stable cell line was purchased from GenScript (Genscript, Cat. #M00201; GenBank Accession Number NM 001059). The cell line was cultured according to manufacturer instructions, using 100 μg/mL Hygromycin B (Invitrogen, Cat. #D2650) for selective pressure. Cells were then collected using 0.05% Trypsin-EDTA (GIBCO, Cat. #25300) and frozen in a freezing media containing 90% FBS (Gibco, Cat. #10099-141) and 10% DMSO (Sigma, Cat. #D2650) at a density of 30×10^6 cells/mL. This bank of assay-ready frozen cells was later used in FLIPR assays to evaluate the potency and efficacy of NK3 antagonist test compounds.
FLIPR Calcium Assay: The FLIPR assay, used to measure changes in intracellular calcium levels, was performed in a 384-well plate format using the FLIPR Calcium 6 assay kit (Molecular Devices, Cat. #R8190). Assay-ready frozen cells expressing human NK3 (Genscript, Cat. #M00201) were thawed, washed, trypsinized, counted using a ViCell, and plated in cell growth media without Hygromycin at a density of […] (40 μL/well).
Calculation of NKB EC70: An EC70 concentration of NKB needed to be determined for competition against test antagonists prior to the compound screen. NKB agonist (Phoenix Pharmaceuticals, Cat. #046-26) was diluted in DMSO at 1800 nM (6-fold the final concentration) and serially diluted to generate a 13-point dose response curve (3-fold serial dilution) using an ECHO. 20 μL of 1× stimulation buffer was added using the BRAVO. 10 μL of DMSO was added while on the FLIPR (described as the first addition), then the RFU signal was measured for 10 minutes. The NKB titration was added to the plate, then the RFU signal was measured for 10 minutes (described as the second addition) on the FLIPR. The EC70 concentration was determined by using a four-parameter fit on GraphPad Prism prior to performing the compound screen.
FLIPR Screen in Antagonist Mode: Test compounds were prepared at 60 μM (6-fold the final concentration) and spotted in 370 nL using the Janus and ECHO. 20 μL of assay buffer was added using the BRAVO. Calcium-sensitive dye was reconstituted in loading buffer (Molecular Devices, Cat. #R8190). Media was removed from the cell plate using a Bluecat Cell Washer, and 40 μL of dye was added to the cell plate using the Apricot. The plate was incubated for 2 hours at 37° C., 5% CO2, then transferred to the FLIPR instrument. 10 μL of compound was added on the FLIPR (described as the first addition), then the RFU signal was measured for 10 minutes. EC70 of NKB agonist was added to the entire plate (described as the second addition), and the RFU signal was measured for 10 minutes on the FLIPR. RFU (relative fluorescence units) signals for first baseline, first peak, second baseline, and second peak were measured using the FLIPR. RFU signal (second peak minus second baseline) for positive (Max, at 10 μM antagonist) and negative (Min, at 0 μM antagonist) controls were used to normalize data and generate values for % Activity. IC50 and efficacy values were determined using a standard curve fitting equation on Dotmatics.

Row | SMILES | IC50 [nM]
1 | Cn1cc(-c2ccc(F)c(F)c2-c2nc3cc(C(=O)NC45COC(C)(C4)C5)ccn3c2C#N)c(F)n1 [Compound 932, 3-cyano-2-(2,3-difluoro-6-(3-fluoro-1-methyl-1H-pyrazol-4-yl)phenyl)-N-(1-methyl-2-oxabicyclo[2.1.1]hexan-4-yl)imidazo[1,2-a]pyridine-7-carboxamide] | 6.09
2 | O=C1N[C@H]2C[C@@H]1N(C(=O)c1ccn3c(Cl)c(-c4ccccc4-c4cnn(C(F)(F)F)c4C(F)(F)F)nc3c1)C2 [Compound 816] | 8.46
3 | Cc1n[nH]cc1-c1ccccc1-c1nc2cc(C(=O)N[C@@H]3CO[C@H]4[C@@H]3OC[C@H]4O)ccn2c1Cl [Compound 475] | 5.74
4 | Cc1nn(C)cc1-c1ccccc1-c1nc2cc(C(=O)N3CCc4n[nH]nc4C3)ccn2c1Cl [Compound 486] | 6.85
5 | CC12CC(NC(=O)c3ccn4c(Cl)c(-c5c(F)cccc5-c5cn[nH]c5)nc4c3)(C1)C2 [Compound 856] | 11.8
6 | Cc1nn(C)cc1-c1ccccc1-c1nc2cc(C(=O)N3CCN(C4CCNC4)CC3)ccn2c1Cl (stereo not drawn) [Compound 443] | 11.3
7 | Cc1nn(C)cc1-c1ccccc1-c1nc2cc(C(=O)NCC(C)(C)O)ccn2c1Cl [Compound 448] | 6.01
8 | Cc1nn(C)cc1-c1cc(F)ccc1-c1nc2cc(C(=O)NC34CNC(C3)C4)ccn2c1Cl [Compound 822] | 9.61
9 | Cc1nn(C)cc1-c1ccccc1-c1nc2cc(C(=O)NCCC3(O)COC3)ccn2c1Cl [Compound 651] | 9.28
10 | Cc1nn(C)cc1-c1ccc(F)cc1-c1nc2cc(C(=O)N3C[C@@H]4C[C@H]3C(=O)N4)ccn2c1Cl [Compound 800] | 8.07
11 | Cc1c(-c2ccccc2-c2nc3cc(C(=O)N[C@H]4C[C@@](C)(C(=O)O)C4)ccn3c2C)cnn1C [Compound 295] | 131
12 | Cc1nn(C)cc1-c1ccccc1-c1nc2cc(C(=O)N3C[C@H](N)[C@@H](O)C3)ccn2c1Cl [Compound 442] | 15.1
13 | Cn1cc(-c2cccc(F)c2-c2nc3cc(C(=O)N[C@H]4C[C@@](C)(O)C4)ccn3c2Cl)cn1 [Compound 835] | 6.24
14 | Cc1nn(C)cc1-c1ccccc1-c1nc2cc(C(=O)O)ccn2c1Cl [Compound 436] | 67.5
15 | Cn1ncc(-c2cc(F)cc(F)c2-c2nc3cc(C(=O)N[C@H]4C[C@@](C)(O)C4)ccn3c2Cl)c1F [Compound 832] | 6.91
16 | C[C@]1(O)C[C@H](NC(=O)c2ccn3c(Cl)c(-c4ccccc4-c4cn(C(F)F)nc4Cl)nc3c2)C1 [Compound 819] | 6.12
17 | Cc1nn(C)cc1-c1ccccc1-c1nc2cc(C(=O)N3CCNCC3)ccn2c1C [Compound 271] | 20.3

Next, values leading:

Row | IC50 [nM] | SMILES
18 | 4.11 | Cc1nn(C)cc1-c1cccc(F)c1-c1nc2cc(C(=O)N3CCN(C(CO)CO)CC3)ccn2c1Cl [Compound 796]
19 | 3.4 | Cc1nn(C)cc1-c1ccccc1-c1nc2cc(C(=O)NC[C@@H](C)N3CCNC3=O)ccn2c1Cl [Compound 490]
20 | 5.58 | Cc1nn(C)cc1-c1ccccc1-c1nc2cc(C(=O)NCCc3n[nH]c(=O)[nH]3)ccn2c1Cl [Compound 748]
21 | 1.45 | Cc1nn(C)cc1-c1ccccc1-c1nc2cc(C(=O)NCC34CC(CO)(CO3)C4)ccn2c1Cl [Compound 616]
22 | 2.55 | Cc1nn(C)cc1-c1ccccc1-c1nc2cc(C(=O)N[C@H]3C[C@@](C)(O)C3)ccn2c1Cl [Compound 460]
23 | 3.48 | Cn1cc(-c2cccc(F)c2-c2nc3cc(C(=O)N[C@H]4CC[C@](C)(O)CC4)ccn3c2Cl)cn1 [Compound 918, 3-chloro-2-(2-fluoro-6-(1-methyl-1H-pyrazol-4-yl)phenyl)-N-((1r,4r)-4-hydroxy-4-methylcyclohexyl)imidazo[1,2-a]pyridine-7-carboxamide]
24 | 1.25 | Cn1cc(-c2cccc(F)c2-c2nc3cc(C(=O)N[C@H]4C[C@@](O)(CO)C4)ccn3c2Cl)c(F)n1 [Compound 841]
25 | 2.08 | Cc1nn(C)cc1-c1ccccc1-c1nc2cc(C(=O)NC(C)c3n[nH]c(=O)[nH]3)ccn2c1Cl (stereo not drawn) [Compound 747]
26 | 4.03 | Cc1nn(C)cc1-c1ccccc1-c1nc2cc(C(=O)N[C@@H]3CO[C@H]4[C@@H]3OC[C@H]4O)ccn2c1C#N [Compound 431]
27 | 2.68 | CO[C@H]1C[C@@H](NC(=O)c2ccn3c(F)c(-c4c(F)cc(F)cc4-c4c[nH]nc4Cl)nc3c2)C1 [Compound 833]
28 | 0.77 | C[C@]1(O)C[C@H](NC(=O)c2ccn3c(Cl)c(-c4ccccc4-c4cnn(C(F)(F)F)c4Cl)nc3c2)C1 [Compound 820]
29 | 4.27 | Cc1nn(C)cc1-c1cccc(F)c1-c1nc2cc(C(=O)N3C[C@@H]4C[C@H]3C(=O)N4)ccn2c1C#N [Compound 468]
30 | 4.63 | Cc1nn(C)cc1-c1ccccc1-c1nc2cc(C(=O)NC[C@@H](C)N3CCNCC3)ccn2c1Cl [Compound 797]
31 | 2.07 | Cn1cc(-c2cccc(F)c2-c2nc3cc(C(=O)N[C@H]4CC5(C4)C[C@](C)(O)C5)ccn3c2Cl)c(F)n1 (stereo partly drawn) [Compound 929, trans 3-chloro-2-(2-fluoro-6-(3-fluoro-1-methyl-1H-pyrazol-4-yl)phenyl)-N-(6-hydroxy-6-methylspiro[3.3]heptan-2-yl)imidazo[1,2-a]pyridine-7-carboxamide]
32 | 1.56 | Cn1cc(-c2cccc(F)c2-c2nc3cc(C(=O)N[C@H]4CC5(C4)C[C@](C)(O)C5)ccn3c2Cl)c(F)n1 (stereo partly drawn) [Compound 928, cis 3-chloro-2-(2-fluoro-6-(3-fluoro-1-methyl-1H-pyrazol-4-yl)phenyl)-N-(6-hydroxy-6-methylspiro[3.3]heptan-2-yl)imidazo[1,2-a]pyridine-7-carboxamide]
33 | 1.41 | Cc1nn(C)cc1-c1cccc(F)c1-c1nc2cc(C(=O)N[C@@H]3CO[C@H]4[C@@H]3OC[C@H]4O)ccn2c1Cl [Compound 470]
34 | 2.21 | Cn1cc(-c2cccc(F)c2-c2nc3cc(C(=O)N[C@H]4CC[C@@H](CO)OC4)ccn3c2C#N)c(F)n1 [Compound 926]
35 | 1.96 | Cc1nn(C)cc1-c1ccccc1-c1nc2cc(C(=O)N[C@H]3CO[C@H]4[C@@H]3OC[C@H]4O)ccn2c1Cl [Compound 768]
36 | 2.36 | Cn1cc(-c2cc(F)cc(F)c2-c2nc3cc(C(=O)N[C@H]4C[C@@](O)(CO)C4)ccn3c2Cl)c(F)n1 [Compound 923, 3-chloro-2-(2,4-difluoro-6-(3-fluoro-1-methyl-1H-pyrazol-4-yl)phenyl)-N-((1r,3r)-3-hydroxy-3-(hydroxymethyl)cyclobutyl)imidazo[1,2-a]pyridine-7-carboxamide]
37 | 1.01 | Cn1cc(-c2cccc(F)c2-c2nc3cc(C(=O)N[C@@H]4CC[C@@H](CO)OC4)ccn3c2Cl)c(F)n1 [Compound 837]
38 | 4.64 | Cc1nn(C)cc1-c1cccc(F)c1-c1nc2cc(C(=O)N[C@H]3CO[C@H]4[C@@H]3OC[C@@H]4O)ccn2c1C#N [Compound 775]
39 | 3.21 | Cc1c(-c2ccccc2-c2cn(C)nc2C(F)(F)F)nc2cc(C(=O)N[C@@H]3CO[C@H]4[C@@H]3OC[C@H]4O)ccn12 [Compound 783]
40 | 3.34 | Cc1nn(C)cc1-c1cccc(F)c1-c1nc2cc(C(=O)N[C@H]3CO[C@H]4[C@@H]3OC[C@H]4O)ccn2c1Cl [Compound 780]
41 | 1.06 | Cc1nn(C)cc1-c1ccccc1-c1nc2cc(C(=O)NC[C@H]3C[C@](C)(O)C3)ccn2c1Cl [Compound 629]
42 | 3.33 | Cc1nn(C)cc1-c1cc(F)cc(F)c1-c1nc2cc(C(=O)N3CC4(O)CC3C4)ccn2c1Cl [Compound 814]
